Results on one compound are retold here after patent US20250213548A1, “PHARMACEUTICAL COMPOSITIONS FOR IMPROVING ORAL BIOAVAILABILITY” (Bristol-Myers Squibb Company, priority 2022, published 2025).

Data set [1] is described as follows: Oral absorption of formulated tablets of Compound (II) in cyno monkeys (PK). The conditions noted are these: cynomolgus monkey, iv, 0.1 mg/kg.
Method: (§1) Four coated tablets were added in each #00 gray opaque hard gelatin capsule for the cyno PK study. Each cyno monkey was dosed with 2 capsules (8 coated tablets).
(§2) Fasted male cyno monkeys (n=3) were dosed by oral route followed by gavage flush with water to facilitate gastro-intestinal dissolution. Blood samples were taken at predetermined times over 72 hours post-dose to measure comparative pharmacokinetics between the formulations. Due to the long half-life these were conducted in a parallel group design in different sets of cyno monkeys.
Data set [2] can be described thus: in vivo. The settings on record: beagle, dog, iv, 10 mg.
Method: (§3) Fasted pentagastrin-pretreated male beagle dogs (n=4) were dosed by oral route followed by gavage flush with water to facilitate gastro-intestinal dissolution. Blood samples were taken at predetermined times over 72 hours post-dose to measure comparative pharmacokinetics between the formulations. Due to the long half-life these were conducted in a parallel group design in different sets of dogs.
For data set [3] the following is noted: cynomolgus monkey, in vivo, iv, 0.1 mg/kg.
Method: as §1, §2
Data set [4] is described as follows: in vivo. The conditions noted are these: cynomolgus monkey, iv.
Method: as §1, §2
For data set [5] the following is noted: rat, in vivo.
Method: The study was run as a two-treatment, two-segment, parallel study in anesthetized, fasted, male Sprague Dawley rats (rat weight: ˜300 g) with 4 rats per group.
For duodenal absorptional testing, the rats were ligated at pylorus (proximal) and the subject formulation was injected directly into duodenum 5 cm past pylorus ligation (about 15 cm from the pylorus) and the distal part of the segment was ligated to contain drug in intestinal segment.
Samples of the dosed solution from gastric and duodenal segments were extracted at 60 min to measure remaining drug concentrations.
A short description of data set [6]: in vivo. The conditions noted are these: dog, iv, 10 mg.
Method: Dogs were administered formulations as follows: • 2×50 mg tablets with 10% API (Example 10, 88.6 mg dose after API potency correction) • 10×10-mg tablets with 10% API (Example 11, 88.6 mg dose after API potency correction) • 5×10 mg tablets with 10% API (Example 11, 44.3 mg dose after API potency correction) and 5 placebo tablets with enhancer only. • 10×5 mg tablets with 5% API (44.3 mg dose after API potency correction) • 40×2.5 mg tablets with 10% API (Example X, 100 mg dose after potency correction)
The nature of data set [7]: in vivo. The conditions noted are these: beagle, dog, iv, 10 mg. This is another data set of the same source.
Method: as §3
Data set [8] in a line: Oral absorption of prepared formulations of Compound (II) in dogs (Example 10, 70 mg). The conditions noted are these: beagle, dog, blood, iv, 10 mg.
Method: as §3

With `CCCC[C@H]1C(=O)N(C)[C@@H](CCCC)C(=O)N[C@@H](CC(C)C)C(=O)N[C@H](C(=O)NCC(=O)N[C@@H](Cc2cn(CCOCCOCCCOCCCOCCOCCOCCOCCOCCOCCOCCOCCNC(=O)CC[C@H](NC(=O)CCCCCCCCCCCCCCCCC(=O)O)C(=O)O)nn2)C(=O)O)CSCC(=O)N[C@@H](Cc2ccc(O)cc2)C(=O)N(C)[C@@H](C)C(=O)N[C@@H](CC(N)=O)C(=O)N2CCC[C@H]2C(=O)N[C@@H](CN)C(=O)N[C@@H](CC(C)C)C(=O)N2C[C@H](O)C[C@H]2C(=O)N[C@@H](Cc2c[nH]c3ccccc23)C(=O)N[C@@H](CCN)C(=O)N[C@@H](Cc2cn(CC(=O)O)c3ccccc23)C(=O)N1C` [Compound (II)], the AUC(0-inf) (commonly the area under the concentration-time curve extrapolated to infinity) in data set [1] (blood) came to 52 µM·h; in data set [7], 402 µM·h; in data set [8] it was 402 µM·h. The AUC(0-t) (as a rule, the area under the concentration-time curve up to a stated or last time point) in data set [1] (in vivo) is 47.6 µM·h; in data set [6] (AUC0-24 h (ng · h/mL) Mean), 376 µg·h/mL; in data set [6] (AUC0-72 h (ng · h/mL) Mean) it was 833 µg·h/mL; in data set [7] (AUC0-24 h (nM · h) Mean), 126 µM·h; in data set [7] (AUC0-t (nM · h)* Mean), 322 µM·h. Moreover, the maximum concentration (Cmax) (as a rule, the highest concentration seen after dosing) in data set [1] (in vivo) was 798 nM; in data set [6] it was 25500 ng/mL; in data set [7] it was 8.55 µM; in data set [8], 8.55 µM. In addition, the Tmax (as a rule, the time from dosing to the highest level) in data set [2] stood at 12 min; in data set [4] (0.1 mg/kg) it was 18 min; in data set [6], 12 min; in data set [7] it was 12 min. In addition, the “BA (%) using AUCInf Mean” value in data set [3] stood at 100.00%. Also, the level at time molar at 24 h in data set [4] (0.1 mpk) was found to be 544 nM. In addition, the “systemic absorption, intestinal compartment compared to the gastric compartment” value in data set [5] is listed as “good systemic absorption”.
